{
  "source": "paper PMC11699025",
  "about": "(Natural Products and Bioprospecting, 2025)",
  "assay_type_in_all_cases": "binding",
  "key": {"[1]": {"biological_target": "SARS-CoV-2 PLpro R166A (Severe acute respiratory syndrome coronavirus 2, UniProt P0DTD1, R1729A)"}, "[2]": {"biological_target": "SARS-CoV-2 Mpro Y126A (Severe acute respiratory syndrome coronavirus 2, UniProt P0DTD1, Y3389A)"}, "[3]": {"biological_target": "SARS-CoV-2 PLpro K254A (Severe acute respiratory syndrome coronavirus 2, UniProt P0DTD1, K1817A)"}, "[4]": {"biological_target": "SARS-CoV-2 PLpro Y251A (Severe acute respiratory syndrome coronavirus 2, UniProt P0DTD1, Y1814A)"}, "[5]": {"biological_target": "SARS-CoV-2 Mpro F291A (Severe acute respiratory syndrome coronavirus 2, UniProt P0DTD1, F3554A)"}, "[6]": {"biological_target": "SARS-CoV-2 PLpro L253A (Severe acute respiratory syndrome coronavirus 2, UniProt P0DTD1, L1816A)"}, "[7]": {"biological_target": "SARS-CoV-2 PLpro V303A (Severe acute respiratory syndrome coronavirus 2, UniProt P0DTD1, V1866A)"}, "[8]": {"biological_target": "SARS-CoV-2 Mpro R4A (Severe acute respiratory syndrome coronavirus 2, UniProt P0DTD1, R3267A)"}, "[9]": {"biological_target": "SARS-CoV-2 PLpro Y273A (Severe acute respiratory syndrome coronavirus 2, UniProt P0DTD1, Y1836A)"}, "[10]": {"biological_target": "SARS-CoV-2 PLpro T257A (Severe acute respiratory syndrome coronavirus 2, UniProt P0DTD1, T1820A)"}, "[11]": {"biological_target": "SARS-CoV-2 PLpro E252A (Severe acute respiratory syndrome coronavirus 2, UniProt P0DTD1, E1815A)"}, "[12]": {"biological_target": "SARS-CoV-2 PLpro D164A (Severe acute respiratory syndrome coronavirus 2, UniProt P0DTD1, D1727A)"}, "[13]": {"biological_target": "SARS-CoV-2 PLpro F258A (Severe acute respiratory syndrome coronavirus 2, UniProt P0DTD1, F1821A)"}, "[14]": {"biological_target": "SARS-CoV-2 PLpro Y268A (Severe acute respiratory syndrome coronavirus 2, UniProt P0DTD1, Y1831A)"}, "[15]": {"biological_target": "SARS-CoV-2 PLpro Y264A (Severe acute respiratory syndrome coronavirus 2, UniProt P0DTD1, Y1827A)"}, "[16]": {"biological_target": "SARS-CoV-2 Mpro K5A (Severe acute respiratory syndrome coronavirus 2, UniProt P0DTD1, K3268A)"}, "[17]": {"biological_target": "SARS-CoV-2 Mpro N142A (Severe acute respiratory syndrome coronavirus 2, UniProt P0DTD1, N3405A)"}, "[18]": {"biological_target": "SARS-CoV-2 Mpro E288A (Severe acute respiratory syndrome coronavirus 2, UniProt P0DTD1, E3551A)"}, "[19]": {"biological_target": "SARS-CoV-2 Mpro F3A (Severe acute respiratory syndrome coronavirus 2, UniProt P0DTD1, F3266A)"}},
  "note": "Several values for one entry are separate records, joined by “and”; a condition that tells them apart may be missing. Equal values may be shown once.",
  "data": [
    {"smiles": "Cc1cc(O)c(O)c(Oc2cc(C)cc(O)c2Oc2cc(C)cc(O)c2O)c1", "note": "[Sydowiol B, sydowiol B]", "values": [
      {"measurement": "Tm value", "setting": "[1]", "value": "50.86 ± 0.55 (3.18) ℃"},
      {"measurement": "△Tm", "setting": "[1]", "value": "50.86 ± 0.55 (3.18) ℃"},
      {"measurement": "Tm value", "setting": "[2]", "value": "47.88 ± 0.22 (1.58) ℃"},
      {"measurement": "△Tm", "setting": "[2]", "value": "47.88 ± 0.22 (1.58) ℃"},
      {"measurement": "Tm value", "setting": "[3]", "value": "46.61 ± 0.16 (3.31) ℃ and 46.23 ± 0.29 (2.93) ℃"},
      {"measurement": "△Tm", "setting": "[3]", "value": "46.61 ± 0.16 (3.31) ℃ and 46.23 ± 0.29 (2.93) ℃"},
      {"measurement": "Tm value", "setting": "[4]", "value": "47.78 ± 0.39 (2.41) ℃ and 46.46 ± 0.07 (1.09) ℃"},
      {"measurement": "△Tm", "setting": "[4]", "value": "47.78 ± 0.39 (2.41) ℃ and 46.46 ± 0.07 (1.09) ℃"},
      {"measurement": "Tm value", "setting": "[5]", "value": "61.29 ± 0.01 (-0.08) ℃ and 61.37 ± 0.01 (0.00) ℃ and 61.44 ± 0.01 (0.07) ℃"},
      {"measurement": "△Tm", "setting": "[5]", "value": "61.29 ± 0.01 (-0.08) ℃ and 61.37 ± 0.01 (0.00) ℃ and 61.44 ± 0.01 (0.07) ℃"},
      {"measurement": "Tm value", "setting": "[6]", "value": "50.09 ± 0.49", "unit": "°C"},
      {"measurement": "Tm value", "setting": "[7]", "value": "52.24 ± 0.13 (5.12) ℃"},
      {"measurement": "△Tm", "setting": "[7]", "value": "52.24 ± 0.13 (5.12) ℃"},
      {"measurement": "Tm value", "setting": "[8]", "value": "54.54 ± 0.06 (0.84) ℃ and 54.25 ± 0.27 (0.55) ℃ and 54.16 ± 0.03 (0.46) ℃"},
      {"measurement": "△Tm", "setting": "[8]", "value": "54.54 ± 0.06 (0.84) ℃ and 54.25 ± 0.27 (0.55) ℃ and 54.16 ± 0.03 (0.46) ℃"},
      {"measurement": "Tm value", "setting": "[9]", "value": "51.09 ± 0.23 (-0.85) ℃ and 50.59 ± 0.10 (-1.35) ℃ and 51.21 ± 0.00 (-0.73) ℃"},
      {"measurement": "△Tm", "setting": "[9]", "value": "51.09 ± 0.23 (-0.85) ℃ and 50.59 ± 0.10 (-1.35) ℃ and 51.21 ± 0.00 (-0.73) ℃"},
      {"measurement": "Tm value", "setting": "[10]", "value": "47.76 ± 0.27 (4.16) ℃"},
      {"measurement": "△Tm", "setting": "[10]", "value": "47.76 ± 0.27 (4.16) ℃"},
      {"measurement": "Tm value", "setting": "[11]", "value": "44.10 ± 0.20 (0.75) ℃ and 45.88 ± 0.48 (2.53) ℃ and 47.86 ± 0.13 (4.51) ℃"},
      {"measurement": "△Tm", "setting": "[11]", "value": "44.10 ± 0.20 (0.75) ℃ and 45.88 ± 0.48 (2.53) ℃ and 47.86 ± 0.13 (4.51) ℃"},
      {"measurement": "Tm value", "setting": "[12]", "value": "44.58 ± 0.62 (2.03) ℃ and 45.84 ± 0.11 (3.29) ℃ and 46.83 ± 0.21 (4.28) ℃"},
      {"measurement": "△Tm", "setting": "[12]", "value": "44.58 ± 0.62 (2.03) ℃ and 45.84 ± 0.11 (3.29) ℃ and 46.83 ± 0.21 (4.28) ℃"},
      {"measurement": "Tm value", "setting": "[13]", "value": "47.68 ± 0.06", "unit": "°C"},
      {"measurement": "Tm value", "setting": "[14]", "value": "50.46 ± 0.65 (3.82) ℃"},
      {"measurement": "△Tm", "setting": "[14]", "value": "50.46 ± 0.65 (3.82) ℃"},
      {"measurement": "Tm value", "setting": "[15]", "value": "46.21 ± 0.86 (0.01) ℃ and 45.93 ± 0.03 (-0.27) ℃ and 46.48 ± 0.43 (0.28) ℃"},
      {"measurement": "△Tm", "setting": "[15]", "value": "46.21 ± 0.86 (0.01) ℃ and 45.93 ± 0.03 (-0.27) ℃ and 46.48 ± 0.43 (0.28) ℃"},
      {"measurement": "Tm value", "setting": "[16]", "value": "47.98 ± 0.07 (0.63) ℃"},
      {"measurement": "△Tm", "setting": "[16]", "value": "47.98 ± 0.07 (0.63) ℃"},
      {"measurement": "Tm value", "setting": "[17]", "value": "58.18 ± 0.03 (5.56) ℃ and 57.22 ± 0.07 (4.60) ℃ and 56.43 ± 0.24 (3.81) ℃"},
      {"measurement": "△Tm", "setting": "[17]", "value": "58.18 ± 0.03 (5.56) ℃ and 57.22 ± 0.07 (4.60) ℃ and 56.43 ± 0.24 (3.81) ℃"},
      {"measurement": "Tm value", "setting": "[18]", "value": "54.03 ± 0.10 (1.14) ℃ and 53.21 ± 0.11 (0.32) ℃"},
      {"measurement": "△Tm", "setting": "[18]", "value": "54.03 ± 0.10 (1.14) ℃ and 53.21 ± 0.11 (0.32) ℃"},
      {"measurement": "Tm value", "setting": "[19]", "value": "53.05 ± 0.12 (1.05) ℃ and 52.84 ± 0.19 (0.84) ℃ and 53.05 ± 0.03 (1.05) ℃"},
      {"measurement": "△Tm", "setting": "[19]", "value": "53.05 ± 0.12 (1.05) ℃ and 52.84 ± 0.19 (0.84) ℃ and 53.05 ± 0.03 (1.05) ℃"}
    ]}
  ]
}
